The results in this text go back to publication PMC5316865, “Covalent assembly of nanoparticles as a peptidase-degradable platform for molecular MRI” (Nature Communications, 2017).

Structures are written as SMILES. Peptide text beside a SMILES is read from it. * marks the point of attachment. Fmoc = O=C(OCC1c2ccccc2-c2ccccc21)*; Ahx = NCCCCCC(=O)O

The target of this test is cathepsin L (Homo sapiens, UniProt P07711). The conditions noted are these: 50 µM peptide, citrate buffer 0.1 M pH 5.5, 1 mM EDTA, 2 mM DTT, 37 °C, overnight reaction, product formation by HPLC.
cathepsin L, sequence (P07711 114-333, species assumed): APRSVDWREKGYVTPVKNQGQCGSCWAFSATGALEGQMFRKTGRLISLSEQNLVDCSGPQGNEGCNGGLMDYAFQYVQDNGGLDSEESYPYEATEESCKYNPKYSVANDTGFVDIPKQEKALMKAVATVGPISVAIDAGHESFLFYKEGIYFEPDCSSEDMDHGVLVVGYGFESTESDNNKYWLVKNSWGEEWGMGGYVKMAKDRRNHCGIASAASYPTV

Method: Activity assay of peptides with cathepsin L.
The reaction mixture was analysed by HPLC to
detect the formation of products from the overnight reaction.
Degradation of non-fluorescent peptides by cathepsin L
A solution of cathepsin L (20 µg/mL, 24 units/L) in citrate buffer 0.1 M pH 5.5, 1 mM EDTA, 2 mM
DTT was preactivated at 25 °C for 15 minutes. A stock solution of peptide 4, 5, 6 or 7 (125 µL, 25 nmol,
0.20 mM in DMSO) was diluted in 365 µL of the assay buffer to a final concentration of 50 µM and pre-
incubated at 37 °C. 10 µL of pre-activated cathepsin L was then added to the peptide solution and
incubated with mild shaking at 37 °C. Aliquots of 100 µL were withdrawn at 0 min, 1 hour and overnight.
Samples were flash-frozen on liquid nitrogen and were heated at 100 °C for 120 seconds prior to the

Turning to `CC(C)[C@H](NC(=O)[C@H](Cc1ccccc1)NC(=O)CCCCCNC(=O)CCCCCNC(=O)OCC1c2ccccc2-c2ccccc21)C(=O)N[C@@H](CCCNC(=N)N)C(=O)NCC(=O)N[C@@H](C)C(=O)NCC(=O)N[C@@H](CCC(=O)O)C(N)=O` [Peptide 3, Fmoc-Ahx-Ahx-FVRGAGE] ({Fmoc-Ahx-Ahx}-FVRGAGE-NH2), the “Activity assay of peptides with cathepsin L” value is listed as “active”.
